Measurements: US9505728B2, “Triazolone compounds and uses thereof” (INCEPTION 2, INC., priority 2012, dated 2016)

What was measured:
PPAR gamma = target: T1, PPAR gamma (Homo sapiens, UniProt P37231); experiment: Target selectivity counterscreen, PPAR γ reporter assay; assay type: cell-based; settings: receptor agonist at ~EC80
T1 construct: host or cells: engineered reporter cells of the kit
T1 sequence (P37231 1-505): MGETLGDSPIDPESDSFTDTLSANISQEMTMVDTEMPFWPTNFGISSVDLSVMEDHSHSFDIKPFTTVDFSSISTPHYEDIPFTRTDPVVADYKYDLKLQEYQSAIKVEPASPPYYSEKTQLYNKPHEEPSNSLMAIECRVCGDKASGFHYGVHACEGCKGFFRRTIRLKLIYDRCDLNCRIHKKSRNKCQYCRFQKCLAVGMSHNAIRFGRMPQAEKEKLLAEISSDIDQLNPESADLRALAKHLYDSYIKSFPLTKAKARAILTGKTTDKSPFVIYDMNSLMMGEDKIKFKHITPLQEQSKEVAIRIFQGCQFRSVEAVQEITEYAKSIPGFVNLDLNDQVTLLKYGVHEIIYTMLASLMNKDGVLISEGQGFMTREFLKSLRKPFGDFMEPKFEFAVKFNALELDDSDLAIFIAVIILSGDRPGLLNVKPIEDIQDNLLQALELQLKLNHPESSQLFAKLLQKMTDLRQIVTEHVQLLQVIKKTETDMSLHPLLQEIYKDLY
Procedure: (§1) Target Selectivity Assays
(§2) To determine species selectivity, a Mouse PPARα Reporter Assay System was used (Indigo Biosciences, Cat. #M00111). Activity of test compounds to antagonize or agonize other isoforms of human PPAR, for example β/δ and γ, were assessed using the corresponding kits from Indigo Biosciences (Cat. #IB00121 and #IB00101, respectively). In addition to PPAR activity, compounds were also screened for activity against other nuclear hormone receptors including Estrogen Receptor β, Glucocorticoid Receptor and Thyroid Receptor β using commercially available kits (Indigo Biosciences, Cat. #IB00411, IB00201 and IB01101, respectively). Each assay system from Indigo Biosciences uses technology analogous to the human PPARα kit, with the variance being that the cells used for each assay were engineered to over-express the receptor of interest. In addition, the appropriate receptor agonist (included with each kit) was used at ˜EC80 for assays in which antagonist potency was being assessed.

Glucocorticoid Receptor = target: T2, Glucocorticoid Receptor (Homo sapiens, UniProt P04150); experiment: Target selectivity counterscreen, Glucocorticoid Receptor reporter assay; assay type: cell-based; settings: receptor agonist at ~EC80
T2 construct: host or cells: engineered reporter cells of the kit
T2 sequence (P04150 1-777): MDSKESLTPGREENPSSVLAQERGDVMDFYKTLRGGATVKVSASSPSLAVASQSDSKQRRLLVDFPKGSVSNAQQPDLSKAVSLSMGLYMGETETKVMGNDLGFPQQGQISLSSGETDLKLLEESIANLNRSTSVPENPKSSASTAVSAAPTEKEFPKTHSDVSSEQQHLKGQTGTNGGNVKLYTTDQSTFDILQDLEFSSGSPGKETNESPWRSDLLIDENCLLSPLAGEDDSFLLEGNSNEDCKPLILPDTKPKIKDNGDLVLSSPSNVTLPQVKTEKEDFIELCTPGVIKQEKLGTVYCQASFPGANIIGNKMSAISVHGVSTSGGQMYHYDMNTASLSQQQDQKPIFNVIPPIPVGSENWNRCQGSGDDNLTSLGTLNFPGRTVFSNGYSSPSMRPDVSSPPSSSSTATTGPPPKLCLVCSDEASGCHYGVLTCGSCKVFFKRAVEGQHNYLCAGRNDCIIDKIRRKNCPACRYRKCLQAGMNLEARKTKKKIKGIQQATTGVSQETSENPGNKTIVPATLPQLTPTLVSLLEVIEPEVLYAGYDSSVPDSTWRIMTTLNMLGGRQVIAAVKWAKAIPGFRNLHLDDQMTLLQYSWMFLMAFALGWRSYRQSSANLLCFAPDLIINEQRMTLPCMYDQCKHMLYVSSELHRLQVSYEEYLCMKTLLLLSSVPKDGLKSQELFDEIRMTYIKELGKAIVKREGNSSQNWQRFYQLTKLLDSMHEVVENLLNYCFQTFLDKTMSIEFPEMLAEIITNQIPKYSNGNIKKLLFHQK
Procedure: as §1, §2

What does the source list for `CCn1c(CCCc2ccc(-c3ccc(NS(=O)(=O)c4ccccc4)cn3)cc2)nn(Cc2ccc(C(C)(C)C)cc2)c1=O` [Example 10, N-(6-(4-(3-(1-(4-(tert-Butyl)benzyl)-4-ethyl-5-oxo-4,5-dihydro-1H-1,2,4-triazol-3-yl)propyl)phenyl)pyridin-3-yl)benzenesulfonamide]?
IC50 (PPAR gamma): 2.9 µM; IC50 (Glucocorticoid Receptor): 36.5 µM
